Experimental data as given in patent publication US7897602B2, “Indolinone compounds as kinase inhibitors” (Development Center for Biotechnology, priority 2009, dated 2011).

Tests used:
Type in all cases: biochemical
c-Met kinase = target: T1, c-Met kinase (Homo sapiens, UniProt P08581); assay: c-Met kinase assay (33P incorporation into Poly(Glu-Tyr)); details: 500 nM test compound
T1 construct: recombinant N-terminal 6×His-tagged c-Met kinase domain construct expressed from baculovirus; 6xHis (N); made in house
T1 sequence (P08581 1078-1345 limits assumed): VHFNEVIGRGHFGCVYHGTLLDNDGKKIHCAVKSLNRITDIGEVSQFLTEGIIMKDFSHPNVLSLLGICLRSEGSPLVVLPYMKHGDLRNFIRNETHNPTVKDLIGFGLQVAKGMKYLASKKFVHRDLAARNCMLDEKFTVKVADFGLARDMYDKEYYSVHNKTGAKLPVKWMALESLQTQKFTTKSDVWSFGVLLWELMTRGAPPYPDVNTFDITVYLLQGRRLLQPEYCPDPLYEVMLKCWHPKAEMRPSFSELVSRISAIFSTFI
Method: Inhibition of c-Met kinase activity by compounds disclosed herein was quantified by measuring the amount of [^33P] incorporated into the substrate in the presence of a test compound. Briefly, a reaction mixture of 25 μL final volume containing 5 ng of c-Met kinase (obtained by purifying recombinant N-terminal 6×His-tagged c-Met kinase domain construct expressed from baculovirus), 1 μg of the substrate (Poly (Glu-Tyr, 4:1, Sigma)), kinase reaction buffer (20 mM MOPS pH 7.0, 1 mM EDTA, 5% glycerol, 0.01% Brij-35, 0.1% β-mercaptoethanol, 1 mg/mL BSA, 100 μM ATP, 0.1 μCi per well [^33P]-γ-ATP (2,500-3,000 Ci/mmol)), and a test compound (500 nM, diluted with 4% DMSO) or DMSO (as the control) was incubated at 30° C. for 30 minutes. The reaction was stopped by adding 5 μL of 3% phosphoric acid solution. The resultant reaction solution was then harvested onto a filter plate (UniFilter-96 GF/B, PerkinElmer), washed 20 times for 5 min with d.d. H2O, and followed by the addition of 30 μL of MicroScint™-20 Cocktail (PerkinElmer). The plate was then sealed and counted using a TopCount scintillation detector (PerkinElmer). The percentage of inhibition rate of the test compound was calculated by dividing the retained radioactivity of the test sample with the retained radioactivity of the control sample and shown in Table 3.

Aurora B kinase = target: T2, Aurora B kinase (Homo sapiens, UniProt Q96GD4); assay: Aurora B kinase assay ([γ-33P]ATP, CHOCKtide substrate); details: for inhibition at 1 µM: 1.0 μM test compound
T2 construct: purchased Cell signaling
T2 sequence (Q96GD4 whole entry): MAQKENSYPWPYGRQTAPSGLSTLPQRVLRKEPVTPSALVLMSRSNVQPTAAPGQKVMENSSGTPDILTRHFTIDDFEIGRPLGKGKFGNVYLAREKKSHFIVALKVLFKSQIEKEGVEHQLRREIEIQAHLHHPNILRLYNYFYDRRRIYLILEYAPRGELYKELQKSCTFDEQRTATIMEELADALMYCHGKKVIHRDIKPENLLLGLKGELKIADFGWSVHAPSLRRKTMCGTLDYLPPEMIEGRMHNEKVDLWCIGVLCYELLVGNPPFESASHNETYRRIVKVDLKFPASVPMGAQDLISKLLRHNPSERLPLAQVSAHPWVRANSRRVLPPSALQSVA
Method: (§1) Inhibition of Aurora Kinase by the compounds disclosed herein was determined by incubating Aurora kinase, substrate, and a test compound together for a period of time followed by quantifying the resultant phosphorylated product. Specifically, in a well of a 96-well round bottom plate, 25 μL of a reaction mixture containing (1) a test compound disclosed herein (diluted from 9 μM to the desired final concentration), [γ-33P]ATP/ATP mix (10 μM), CHOCKtide (1 μg, Genesis Biotech Inc.), and Aurora-A (1 ng, purchased from Upstate); or (2) a test compound disclosed herein (diluted from 9 μM to the desired final concentration), [γ-33P]ATP/ATP mix (40 μM), CHOCKtide (1 μg, Genesis Biotech Inc.), and Aurora-B (2.5 ng, purchased from Cell signaling); was prepared and incubated at 33° C. for 30 minutes. The reaction was then stopped by adding 5 μL of 3% phosphoric acid. The resultant solution (30 μL) was later harvested by a UniFilter Plate GF/B (PerkinElmer) followed by adding 30 μL of the scintillation cocktail (MicroScint 20, PerkinElmer) to the well. The radioactivity retained on the filter membrane was measured by a luminescence counter (PerkinElmer). IC50 value is defined as the concentration of the test compound which achieves a half-maximal inhibition of the kinase activity.

Aurora A kinase = target: T3, Aurora A kinase (Homo sapiens, UniProt O14965); assay: Aurora A kinase assay ([γ-33P]ATP, CHOCKtide substrate); details: for inhibition at 1 µM: 1.0 μM test compound
T3 construct: purchased Upstate
T3 sequence (O14965 1-403): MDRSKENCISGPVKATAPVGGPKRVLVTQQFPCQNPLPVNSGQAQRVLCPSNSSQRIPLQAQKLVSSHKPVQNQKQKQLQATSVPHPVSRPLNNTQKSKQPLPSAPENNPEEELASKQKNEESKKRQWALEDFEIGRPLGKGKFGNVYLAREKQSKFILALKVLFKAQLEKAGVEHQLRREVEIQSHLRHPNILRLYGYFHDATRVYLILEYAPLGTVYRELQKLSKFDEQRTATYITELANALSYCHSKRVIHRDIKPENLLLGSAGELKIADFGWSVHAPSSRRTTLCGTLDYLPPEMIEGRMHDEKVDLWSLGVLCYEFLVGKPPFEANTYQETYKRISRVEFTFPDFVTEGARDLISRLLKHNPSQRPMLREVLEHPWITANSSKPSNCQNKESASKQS
Method: as §1

Compound | inhibition at 0.5 µM (c-Met kinase) [%] | inhibition at 1 µM (Aurora B kinase) [%] | inhibition at 1 µM (Aurora A kinase) [%] | IC50 (Aurora B kinase) [µM] | IC50 (Aurora A kinase) [µM]
CC(=O)c1c(C)[nH]c(/C=C2\C(=O)Nc3ccc(S(=O)(=O)Cc4c(Cl)cccc4Cl)cc32)c1CCC(=O)O [DCB-70202, (Z)-3-(4-acetyl-2-((5-(2,6-dichlorobenzylsulfonyl)-2-oxoindolin-3-ylidene)methyl)-5-methyl-1H-pyrrol-3-yl)propanoic acid] | 85.2 | 7.3 | 40.2 | – | –
CCOC(=O)CCc1c(/C=C2\C(=O)Nc3ccc(NS(=O)(=O)c4ccccc4)cc32)[nH]c(C)c1C(C)=O [DCB-70201, (Z)-ethyl 3-(4-acetyl-5-methyl-2-((2-oxo-5-(phenylsulfonamido)indolin-3-ylidene)methyl)-1H-pyrrol-3-yl)propanoate] | 18.8 | 36.6 | 48.2 | – | –
CCN(CC)CCNC(=O)CCc1c(/C=C2\C(=O)Nc3ccc(F)cc32)[nH]c(C)c1C(C)=O [DCB-70213, (Z)-3-(4-acetyl-2-((5-fluoro-2-oxoindolin-3-ylidene)methyl)-5-methyl-1H-pyrrol-3-yl)-N-(2-(diethylamino)ethyl)propanamide] | 15.5 | 16.4 | 1 | – | –
CCOC(=O)CCc1c(/C=C2\C(=O)Nc3ccc(OC)cc32)[nH]c2c1C(=O)CCC2 [DCB-70166, (Z)-ethyl 3-(2-((5-methoxy-2-oxoindolin-3-ylidene)methyl)-4-oxo-4,5,6,7-tetrahydro-1H-indol-3-yl)propanoate] | 21.6 | 13 | 48.8 | – | –
COc1ccc2c(c1)/C(=C/c1[nH]c3c(c1CCC(=O)O)C(=O)CCCC3)C(=O)N2 [DCB-70155, (Z)-3-(2-((5-methoxy-2-oxoindolin-3-ylidene)methyl)-4-oxo-1,4,5,6,7,8-hexahydrocyclohepta[b]pyrrol-3-yl)propanoic acid] | 9.1 | 10.7 | 75.6 | – | –
CC(=O)c1c(C)[nH]c(/C=C2\C(=O)Nc3ccc(NS(=O)(=O)c4ccccc4)cc32)c1CCC(=O)O [DCB-70200, (Z)-3-(4-acetyl-5-methyl-2-((2-oxo-5-(phenylsulfonamido)indolin-3-ylidene)methyl)-1H-pyrrol-3-yl)propanoic acid] | 15.2 | 57.3 | 93.1 | 0.87 | 0.0606
CNC(=O)CCc1c(/C=C2\C(=O)Nc3ccc(S(=O)(=O)Cc4c(Cl)cccc4Cl)cc32)[nH]c2c1C(=O)CCC2 [DCB-70157, (Z)-3-(2-((5-(2,6-dichlorobenzylsulfonyl)-2-oxoindolin-3-ylidene)methyl)-4-oxo-4,5,6,7-tetrahydro-1H-indol-3-yl)-N-methylpropanamide] | 85.6 | 6.9 | 13 | – | –
CC(=O)c1c(C)[nH]c(/C=C2\C(=O)Nc3ccc(F)cc32)c1CCC(=O)O [DCB-70187, (Z)-3-(4-acetyl-2-((5-fluoro-2-oxoindolin-3-ylidene)methyl)-5-methyl-1H-pyrrol-3-yl)propanoic acid] | 8.8 | 17.5 | 62.8 | – | –
CCOC(=O)CCc1c(/C=C2\C(=O)Nc3ccc(OC)cc32)[nH]c2c1C(=O)CCCC2 [DCB-70154, (Z)-ethyl 3-(2-((5-methoxy-2-oxoindolin-3-ylidene)methyl)-4-oxo-1,4,5,6,7,8-hexahydrocyclohepta[b]pyrrol-3-yl)propanoate] | 47.9 | 2.8 | -0.3 | – | –
CCOC(=O)CCc1c(/C=C2\C(=O)Nc3ccc(NC(=O)Nc4ccc(F)cc4F)cc32)[nH]c2c1C(=O)CCC2 [DCB-70183, (Z)-ethyl 3-(2-((5-(3-(2,4-difluorophenyl)ureido)-2-oxoindolin-3-ylidene)methyl)-4-oxo-4,5,6,7-tetrahydro-1H-indol-3-yl)propanoate] | 1.5 | 13.9 | 13.2 | – | –
CC(=O)c1c(C)[nH]c(/C=C2\C(=O)Nc3ccc(S(=O)(=O)N4CCc5ccccc54)cc32)c1CCC(=O)O [DCB-70188, (Z)-3-(4-acetyl-2-((5-(indolin-1-ylsulfonyl)-2-oxoindolin-3-ylidene)methyl)-5-methyl-1H-pyrrol-3-yl)propanoic acid] | 51.1 | 53.2 | 95.5 | 0.759 | 0.0317
CCOC(=O)CCc1c(/C=C2\C(=O)Nc3ccc(NS(=O)(=O)Cc4ccccc4)cc32)[nH]c2c1C(=O)CCC2 [DCB-70197, (Z)-ethyl 3-(4-oxo-2-((2-oxo-5-(phenylmethylsulfonamido)indolin-3-ylidene)methyl)-4,5,6,7-tetrahydro-1H-indol-3-yl)propanoate] | 21.1 | 39.9 | 48.7 | – | –
O=C(O)CCc1c(/C=C2\C(=O)Nc3ccc(NS(=O)(=O)c4cc(F)cc(F)c4)cc32)[nH]c2c1C(=O)CCC2 [DCB-70190, (Z)-3-(2-((5-(3,5-difluorophenylsulfonamido)-2-oxoindolin-3-ylidene)methyl)-4-oxo-4,5,6,7-tetrahydro-1H-indol-3-yl)propanoic acid] | 10 | 80 | 97 | 0.246 | 0.0315
CCOC(=O)CCc1c(/C=C2\C(=O)Nc3ccc(NS(=O)(=O)c4ccc5ccccc5c4)cc32)[nH]c2c1C(=O)CCC2 [DCB-70191, (Z)-ethyl 3-(2-((5-(naphthalene-2-sulfonamido)-2-oxoindolin-3-ylidene)methyl)-4-oxo-4,5,6,7-tetrahydro-1H-indol-3-yl)propanoate] | 19 | 21.2 | 20.4 | – | –
COc1cccc(S(=O)(=O)Nc2ccc3c(c2)/C(=C/c2[nH]c4c(c2CCC(=O)O)C(=O)CCC4)C(=O)N3)c1 [DCB-70196, (Z)-3-(2-((5-(3-methoxyphenylsulfonamido)-2-oxoindolin-3-ylidene)methyl)-4-oxo-4,5,6,7-tetrahydro-1H-indol-3-yl)propanoic acid] | 13.8 | 55.8 | 91.8 | 0.673 | 0.0614
CCOC(=O)CCc1c(/C=C2\C(=O)Nc3ccc(/N=C/c4ccncc4)cc32)[nH]c2c1C(=O)CCC2 [DCB-70177, ethyl 3-(4-oxo-2-((Z)-(2-oxo-5-((E)-pyridin-4-ylmethyleneamino)indolin-3-ylidene)methyl)-4,5,6,7-tetrahydro-1H-indol-3-yl)propanoate] | 18.8 | 22.5 | 81.6 | – | –
CC1(C)CC(=O)c2c([nH]c(/C=C3\C(=O)Nc4ccc(S(=O)(=O)Cc5c(Cl)cccc5Cl)cc43)c2CCC(=O)O)C1 [DCB-70159, (Z)-3-(2-((5-(2,6-dichlorobenzylsulfonyl)-2-oxoindolin-3-ylidene)methyl)-6,6-dimethyl-4-oxo-4,5,6,7-tetrahydro-1H-indol-3-yl)propanoic acid] | 81.3 | -5.5 | 13.9 | – | –
CC1(C)CC(=O)c2c([nH]c(/C=C3\C(=O)Nc4ccc(S(=O)(=O)N5CCc6ccccc65)cc43)c2CCC(=O)O)C1 [DCB-70161, (Z)-3-(2-((5-(indolin-1-ylsulfonyl)-2-oxoindolin-3-ylidene)methyl)-6,6-dimethyl-4-oxo-4,5,6,7-tetrahydro-1H-indol-3-yl)propanoic acid] | 59.7 | 14.6 | 78.8 | – | –
